In US5780642A, “Imidazole derivatives as therapeutic agents” (KNOLL Aktiengesellschaft, priority 1993, dated 1998):
Where a name gives a salt, the structure may show the parent alone.

Each compound was assayed on Zymosan Stimulated Macrophages (arachidonic acid release) (assay: Test A: Inhibition of Arachidonic Acid Release from Zymosan Stimulated Macrophages). Conditions: Mus musculus, Macrophage, inhibition of arachidonic acid release, zymosan stimulated mouse peritoneal macrophages; tested at 100, 50, 20, 10, 5 and 1 μM; ≤100 μM considered active; read-out: Test A IC50.
Type: cell-based, mouse (female MF1 mice)
Protocol: Test A was carried out in the following way:
Inhibition of Arachidonic Acid Release from Zymosan Stimulated Macrophages
Female MF1 mice (weighing 20 to 25 g) were killed using a rising concentration of CO2. The mice were laid on their backs and the abdomens wiped with 70% alcohol. The skin was pulled back, exposing the peritoneal wall. Medium A (5 ml) (see below) was injected into the peritoneal cavity of each mouse followed by approximately 1 ml of air using a 20 ml syringe and a 21G×40 mm needle in order to form a suspension of macrophage cells. The medium and cells were then removed using a 19G×40 mm needle. The resulting suspension was returned to a sterile beaker kept on ice. The extracts from all the mice were pooled and this pooled cell suspension was counted using a Coulter counter and adjusted to a final cell count of 1-1.3×10^6 cells/ml prior to labelling with [^3 H]-arachidonic acid. Typically five mice provided sufficient cells for each multiwell plate.
Sufficient [^3 H]-arachidonic acid in ethanol to give a final concentration of 1.6 μCi/ml (equivalent to 40 μCi/plate) was blown to dryness under nitrogen. The arachidonic acid was then resuspended in 1 or 2 ml of the cell suspension which was then mixed with the remainder of the cell suspension in a centrifuge bottle. The labelled cell suspension was then plated out into sterile plastic 96 flat-bottomed well plates (250 μl per well) and incubated overnight at 37° C. in a moist atmosphere of 5% CO2, 95% air.
The following day, non-adherent cells were removed by washing 3 times with sterile phosphate buffered saline (PBS). The adherent peritoneal macrophages were then cultured for a further 24 hours in the presence or absence of drugs, in medium B (see below) at 37° in a 5% CO2 atmosphere in order to measure the effects of drugs on the spontaneous release of arachidonic acid in the absence of stimulus. After this incubation, supernatants were removed to give media 1 and stored in sealed multi-well plates at 4° C. prior to scintillation counting. Drugs which potentiated spontaneous release of arachidonic acid (125% of controls) were deemed to be toxic at the concentration at which this phenomenon occurred. The supernatants were replaced by fresh medium C containing fresh drug and a stimulus. Three drugs were tested at six concentrations (100, 50, 20, 10, 5 and 1 μM) in replicates of four on each plate. The other wells contained controls consisting of a positive control (e.g. dexamethasone), medium (B) only and medium C only.
Incubation was then continued for a further 5 hours, whereupon the supernatants were collected to give media 2 and the adherent cells washed with PBS. The cells were then lysed with 100 μl of 0.1% TRITON® X100 in a 0.1% solution of bovine serum albumin in 0.9% saline and mechanically disrupted to give cell lysates. These supernatants (media 2) and cell lysates (Cells) were also stored in sealed multi-well plates at 4° C. prior to scintillation counting. 200 μl aliquots of media, or 100 μl aliquots of cells were counted using 2 ml of OPTIPHASE "HIGH SAFE" (Trademark of LKB) as scintillant.
The percentage of arachidonic acid released was calculated using the mean values for each group of 4 wells in the following equation. [formula]
The value for the arachidonic acid release in the absence of stimulus (spontaneous, cpm of media 2) from cells which had been exposed to neither stimulus nor drug was subtracted from all equivalent values (cpm media 2, stimulated with or without drug) to give the net stimulated release. The percentage inhibition of arachidonic acid release caused by a drug may then be calculated using the following equation. [formula]
Compounds of formula I were tested at six concentrations (100, 50, 20, 10, 5 and 1 μM) and IC50 values calculated. Compounds with IC50 values≤100 μM are considered to be active. Advantageous compounds have an IC50 value<50 μM.
Medium A (for peritoneal lavage) […]

SMILES | IC50
CCCCNC(=O)NCCc1ccc(C(C)(C)NCCCn2ccnc2)cc1 [Example 58, N-butyl-N'-[2-(4-{1-[3-(imidazol-1-yl)propylamino]-1-methylethyl}phenyl)ethyl]urea] | 20 µM
CC(C)(COc1ccccc1)NCCCn1cnc(CCNC(=O)c2ccccc2)c1 [Example 76, N-(2-{1-[3-(1,1-dimethyl-2-phenoxyethylamino)-propyl]imidazol-4-yl}ethyl)benzamide] | 16 µM
CCC(CC)(NCC(O)Cn1ccnc1)c1ccccc1 (stereo not shown) [Example 44, 1-(1-Ethyl-1-phenylpropylamino)-3-(imidazol-1-yl)-propan-2-ol] | 120 µM
CCCCCCNC(=O)Cc1ccc(C(C)(C)NCC(O)Cn2ccnc2)cc1 (stereo not shown) [Example 47, N-Hexyl-4-{1-[2-hydroxy-3-(imidazol-1-yl)propylamino]-1-methylethyl}phenylacetamide] | 64 µM
CSc1ccc(OCC(C)(C)NCC(O)Cn2ccnc2)cc1 (stereo not shown) [Example 51, 3-(Imidazol-1-yl)-1-[2-(4-methylthiophenoxy)-1,1-dimethylethylamino]propan-2-ol] | 87 µM
CCC(CC)(CO)c1ccc(C(C)(C)NCCCn2ccnc2)cc1 [Example 41, 2-Ethyl-2(4-{1-[3-(imidazol-1-yl)propylamino]-1-methylethyl}phenyl)butan-1-ol] | 10 µM
CC(C)(NCCCn1ccnc1C(O)c1ccccc1)c1ccc(Cl)cc1 (stereo not drawn) [Example 23, α-(1-{3-[1-(4-Chlorophenyl)-1-methylethylamino]propyl}-imidazol-2-yl)benzyl alcohol] | 7 µM
CCCN(CCC)S(=O)(=O)c1ccc(C(C)(C)NCCCn2ccnc2)cc1 [Example 26, 4-{1-[3-(Imidazol-1-yl)propylamino]-1-methylethyl}-N,N-dipropylbenzenesulphonamide] | 10 µM
COc1ccc(OCC(C)(C)NCCCn2ccnc2)cc1 [Example 108, N-[2-(4-methoxyphenoxy)-1,1-dimethylethyl]-3-(imidazol-1-yl)propylamine dihydrochloride hydrate] | 100 µM
CCC(CC)(NCCCn1cnc(CCNC(=O)c2ccc(OC)cc2)c1)c1ccccc1 [Example 61, N-(2-{1-[3-(1-ethyl-1-phenylpropylamino)propyl]-imidazol-4-yl}ethyl)-4-methoxybenzamide] | 9 µM
CC(C)(COc1ccccc1)NCCCn1ccnc1 [Example 35, 3-(Imidazol-1-yl)-N-(1,1-dimethyl-2-phenoxyethyl) propylamine] | 47 µM
CCC(CC)(NCCCn1cnc(CCNC(=O)c2ccc(C#N)cc2)c1)c1ccccc1 [Example 62, 4-cyano-N-(2-{1-[3-(1-ethyl-1-phenylpropylamino)propyl]imidazol-4-yl}ethyl)benzamide] | 14 µM
CC(C)(COc1ccccc1)NCCCn1cnc(CCNS(=O)(=O)c2ccccc2)c1 [Example 77, N-(2-{1-[3-(1,1-dimethyl-2-phenoxyethylamino)propyl]imidazol-4-yl}ethyl]benzene-sulphonamide] | 12 µM
CCCCNCc1cn(CCCNC(C)(C)c2ccc(Cl)cc2)cn1 [Example 82, 3-[4-(butylaminomethyl)imidazol-1-yl]-N-[1-(4-chlorophenyl)-1-methylethyl]propylamine] | 17 µM
Cc1nccn1CCCNCCCc1ccc(Cl)cc1 [Example 12, 3-(4-Chlorophenyl)-3'-(2-methylimidazol-1-yl)dipropylamine] | 7 µM
CC(C)(COc1ccc(F)cc1)NCCCn1ccnc1 [Example 40, N-[2-(4-Fluorophenoxy)-1,1-dimethylethyl]-3-(imidazol-1-yl)propylamine dimaleate hemihydrate] | 0.3 µM
CC(C)(COCc1ccc(Cl)cc1)NCCCn1ccnc1 [Example 80, N-[2-(4-chlorobenzyloxy)-1,1-dimethylethyl]-3-(imidazol-1-yl)propylamine] | 13 µM

SMILES | IC50
CC(C)(NCc1ncc[nH]1)c1ccc(Cl)cc1 [Example 83, 1-(4-chlorophenyl)-N-(imidazol-2-ylmethyl)-1-methylethylamine] | 90 µM
CC(C)(NCCCn1ccnc1)c1ccc(C(=O)NC2CCCCC2)cc1 [Example 28, N-Cyclohexyl-4-{1-[3-(imidazol-1-yl)propylamino]-1-methylethyl}benzamide] | 25 µM
CC(C)(NCCCn1cnc(CCNC(=O)c2ccccc2)c1)c1ccc(Cl)cc1 [Example 55, N-[2-(1-(3-[1-(4-chlorophenyl)-1-methylethylamino]propyl}imidazol-4-yl)ethyl]benzamide] | 7 µM
CCCCS(=O)(=O)Oc1ccc(C(C)(C)NCCCn2ccnc2)cc1 [Example 72, 4-{1-[3-(imidazol-1-yl)propylamino]-1-methylethyl}phenyl 1-butanesulphonate] | 24 µM
Clc1ccc(CCCNCCCn2ccnc2)cc1 [Example 14, 3-(4-Chlorophenyl)-3'-(imidazol-1-yl)dipropylamine] | 6 µM
CC(C)(NCCCn1ccnc1)c1ccc(CCOCc2ccccc2)cc1 [Example 27, N-{1-[4-(2-Benzyloxyethyl)phenyl]-1-methylethyl}-3-(imidazol-1-yl)propylamine] | 70 µM
CC(C)(NCCCc1nccn1Cc1ccccc1)c1ccc(Cl)cc1 [Example 86, 3-(1-benzylimidazol-2-yl)-N-[1-(4-chlorophenyl)-1-methylethyl]propylamine] | 3 µM
CC(C)(NCCCn1ccnc1)c1ccc(CC(=O)NCc2ccc(Cl)cc2)cc1 [Example 30, N-(4-Chlorobenzyl)-4-{1-[3-(imidazol-1-yl)propylamino]-1-methylethyl}phenylacetamide] | 20 µM
CC(C)(COc1ccc(C(F)(F)F)cc1)NCCCn1ccnc1 [Example 39, N-{2-[4-(Trifluoromethyl)phenoxy]-1,1-dimethylethyl}-3-(imidazol-1-yl)propylamine dimaleate] | 0.2 µM
CC(C)(NCCCn1ccnc1)c1ccc(Cl)c(NC(=O)c2ccccc2)c1 [Example 73, 2'-chloro-5'-{1-[3-(imidazol-1-yl)propylamino]-1-methylethyl}benzanilide] | 25 µM
CC(C)(CNCCCn1ccnc1)c1ccc(Cl)cc1 [Example 13, 2-(4-Chlorophenyl)-3'-(imidazol-1-yl)-2-methyldipropylamine dihydrochloride] | 9 µM
CC(C)(NCC(O)Cn1ccnc1)c1ccc(C(=O)NC2CCCCC2)cc1 (stereo not shown) [Example 48, N-Cyclohexyl-4-{1-[2-hydroxy-3-(imidazol-1-yl)propylamino]-1-methylethyl}benzamide] | 70 µM
CC(C)(COc1ccccc1)NCCCCCn1ccnc1 [Example 75, 5-(imidazol-1-yl)-N-(1,1-dimethyl-2-phenoxyethyl)pentylamine] | 26 µM
COC(=O)CN(CCCn1ccnc1)CCOc1ccc(Cl)cc1 [Example 65, methyl N-[2-(4-chlorophenoxy)ethyl]-N-[3-(imidazol-1-yl)propyl]glycinate] | 88 µM
Clc1ccc(C2(CCNCCCn3ccnc3)OCCO2)cc1 [Example 32, N-{2-[2-(4-Chlorophenyl)-1,3-dioxolan-2-yl]ethyl}-3-(imidazol-1-yl)propylamine] | 9 µM
c1ccc(COc2ccc(OCCNCCCn3ccnc3)cc2)cc1 [Example 10, N-[2-(4-Benzyloxyphenoxy)ethyl]-3-(imidazol-1-yl)propylamine dihydrochloride hydrate] | 36 µM

Same assay, conditions: Mus musculus, Macrophage, read-out: Test A IC50

SMILES | IC50
CC(C)(Cc1ccc(Cl)cc1)NCCCn1ccnc1 [Example 21, N-[2-(4-Chlorophenyl)-1,1-dimethylethyl]-3-(imidazol-1-yl)propylamine dihydrochloride] | 8 µM
